Data reported in PMC8212709 (Clinical and Translational Science, 2021).

Experiment: Phase I SRD/MRD safety and tolerability
Type: in vivo, human (healthy subjects)

C=CC(=O)N1CC[C@H](Oc2nc(-c3n[nH]c(=O)[nH]3)cc3ccccc23)C1 [TAK‐020]
Deaths (MRD 3.75 mg q.d. (n = 6)): 0 n (%)
Serious TEAEs (MRD 3.75 mg q.d. (n = 6)): 0 n (%)
Serious TEAEs, Not related (MRD 3.75 mg q.d. (n = 6)): 0 n (%)
Serious TEAEs, Related (MRD 3.75 mg q.d. (n = 6)): 0 n (%)
TEAEs (MRD 3.75 mg q.d. (n = 6)): 1 (16.7) n (%)
TEAEs Leading to DC (MRD 3.75 mg q.d. (n = 6)): 0 n (%)
TEAEs, Mild (MRD 3.75 mg q.d. (n = 6)): 1 (16.7) n (%)
TEAEs, Moderate (MRD 3.75 mg q.d. (n = 6)): 0 n (%)
TEAEs, Not related (MRD 3.75 mg q.d. (n = 6)): 0 n (%)
TEAEs, Related (MRD 3.75 mg q.d. (n = 6)): 1 (16.7) n (%)
TEAEs, Severe (MRD 3.75 mg q.d. (n = 6)): 0 n (%)
Deaths (MRD 5.75 mg q.d. (n = 6)): 0 n (%)
Serious TEAEs (MRD 5.75 mg q.d. (n = 6)): 0 n (%)
Serious TEAEs, Not related (MRD 5.75 mg q.d. (n = 6)): 0 n (%)
Serious TEAEs, Related (MRD 5.75 mg q.d. (n = 6)): 0 n (%)
TEAEs (MRD 5.75 mg q.d. (n = 6)): 3 (50.0) n (%)
TEAEs Leading to DC (MRD 5.75 mg q.d. (n = 6)): 0 n (%)
TEAEs, Mild (MRD 5.75 mg q.d. (n = 6)): 3 (50.0) n (%)
TEAEs, Moderate (MRD 5.75 mg q.d. (n = 6)): 0 n (%)
TEAEs, Not related (MRD 5.75 mg q.d. (n = 6)): 1 (16.7) n (%)
TEAEs, Related (MRD 5.75 mg q.d. (n = 6)): 2 (33.3) n (%)
TEAEs, Severe (MRD 5.75 mg q.d. (n = 6)): 0 n (%)
Deaths (MRD 13 mg q.d. (n = 6)): 0 n (%)
Serious TEAEs (MRD 13 mg q.d. (n = 6)): 0 n (%)
Serious TEAEs, Not related (MRD 13 mg q.d. (n = 6)): 0 n (%)
Serious TEAEs, Related (MRD 13 mg q.d. (n = 6)): 0 n (%)
TEAEs (MRD 13 mg q.d. (n = 6)): 3 (50.00) n (%)
TEAEs Leading to DC (MRD 13 mg q.d. (n = 6)): 0 n (%)
TEAEs, Mild (MRD 13 mg q.d. (n = 6)): 3 (50.0) n (%)
TEAEs, Moderate (MRD 13 mg q.d. (n = 6)): 0 n (%)
TEAEs, Not related (MRD 13 mg q.d. (n = 6)): 2 (33.3) n (%)
TEAEs, Related (MRD 13 mg q.d. (n = 6)): 1 (16.7) n (%)
TEAEs, Severe (MRD 13 mg q.d. (n = 6)): 0 n (%)
Deaths (MRD 25 mg q.d. (n = 6)): 0 n (%)
Serious TEAEs (MRD 25 mg q.d. (n = 6)): 0 n (%)
Serious TEAEs, Not related (MRD 25 mg q.d. (n = 6)): 0 n (%)
Serious TEAEs, Related (MRD 25 mg q.d. (n = 6)): 0 n (%)
TEAEs (MRD 25 mg q.d. (n = 6)): 2 (33.3) n (%)
TEAEs Leading to DC (MRD 25 mg q.d. (n = 6)): 0 n (%)
TEAEs, Mild (MRD 25 mg q.d. (n = 6)): 2 (33.3) n (%)
TEAEs, Moderate (MRD 25 mg q.d. (n = 6)): 0 n (%)
TEAEs, Not related (MRD 25 mg q.d. (n = 6)): 2 (33.3) n (%)
TEAEs, Related (MRD 25 mg q.d. (n = 6)): 0 n (%)
TEAEs, Severe (MRD 25 mg q.d. (n = 6)): 0 n (%)
Deaths (MRD 45 mg q.d. (n = 6)): 0 n (%)
Serious TEAEs (MRD 45 mg q.d. (n = 6)): 0 n (%)
Serious TEAEs, Not related (MRD 45 mg q.d. (n = 6)): 0 n (%)
Serious TEAEs, Related (MRD 45 mg q.d. (n = 6)): 0 n (%)
TEAEs (MRD 45 mg q.d. (n = 6)): 1 (16.7) n (%)
TEAEs Leading to DC (MRD 45 mg q.d. (n = 6)): 0 n (%)
TEAEs, Mild (MRD 45 mg q.d. (n = 6)): 1 (16.7) n (%)
TEAEs, Moderate (MRD 45 mg q.d. (n = 6)): 0 n (%)
TEAEs, Not related (MRD 45 mg q.d. (n = 6)): 1 (16.7) n (%)
TEAEs, Related (MRD 45 mg q.d. (n = 6)): 0 n (%)
TEAEs, Severe (MRD 45 mg q.d. (n = 6)): 0 n (%)
Deaths (MRD 60 mg q.d. (n = 6)): 0 n (%)
Serious TEAEs (MRD 60 mg q.d. (n = 6)): 0 n (%)
Serious TEAEs, Not related (MRD 60 mg q.d. (n = 6)): 0 n (%)
Serious TEAEs, Related (MRD 60 mg q.d. (n = 6)): 0 n (%)
TEAEs (MRD 60 mg q.d. (n = 6)): 1 (16.7) n (%)
TEAEs Leading to DC (MRD 60 mg q.d. (n = 6)): 0 n (%)
TEAEs, Mild (MRD 60 mg q.d. (n = 6)): 1 (16.7) n (%)
TEAEs, Moderate (MRD 60 mg q.d. (n = 6)): 0 n (%)
TEAEs, Not related (MRD 60 mg q.d. (n = 6)): 1 (16.7) n (%)
TEAEs, Related (MRD 60 mg q.d. (n = 6)): 0 n (%)
TEAEs, Severe (MRD 60 mg q.d. (n = 6)): 0 n (%)
Deaths (MRD Overall TAK‐020 (N = 36)): 0 n (%)
Serious TEAEs (MRD Overall TAK‐020 (N = 36)): 0 n (%)
Serious TEAEs, Not related (MRD Overall TAK‐020 (N = 36)): 0 n (%)
Serious TEAEs, Related (MRD Overall TAK‐020 (N = 36)): 0 n (%)
TEAEs (MRD Overall TAK‐020 (N = 36)): 11 (30.6) n (%)
TEAEs Leading to DC (MRD Overall TAK‐020 (N = 36)): 0 n (%)
TEAEs, Mild (MRD Overall TAK‐020 (N = 36)): 11 (30.6) n (%)
TEAEs, Moderate (MRD Overall TAK‐020 (N = 36)): 0 n (%)
TEAEs, Not related (MRD Overall TAK‐020 (N = 36)): 7 (19.4) n (%)
TEAEs, Related (MRD Overall TAK‐020 (N = 36)): 4 (11.1) n (%)
TEAEs, Severe (MRD Overall TAK‐020 (N = 36)): 0 n (%)
percentage of subjects who had TEAEs (MRD, overall TAK‐020 group): 30.6%
subjects with study treatment‐related TEAEs (MRD, overall TAK‐020 group (four subjects)): 11.1%
Deaths (SRD Overall TAK‐020 (N = 54)): 0 n (%)
Serious TEAEs (SRD Overall TAK‐020 (N = 54)): 0 n (%)
Serious TEAEs, Not related (SRD Overall TAK‐020 (N = 54)): 0 n (%)
Serious TEAEs, Related (SRD Overall TAK‐020 (N = 54)): 0 n (%)
TEAEs (SRD Overall TAK‐020 (N = 54)): 6 (11.1) n (%)
TEAEs Leading to DC (SRD Overall TAK‐020 (N = 54)): 0 n (%)
TEAEs, Mild (SRD Overall TAK‐020 (N = 54)): 6 (11.1) n (%)
TEAEs, Moderate (SRD Overall TAK‐020 (N = 54)): 0 n (%)
TEAEs, Not related (SRD Overall TAK‐020 (N = 54)): 3 (5.6) n (%)
TEAEs, Related (SRD Overall TAK‐020 (N = 54)): 3 (5.6) n (%)
TEAEs, Severe (SRD Overall TAK‐020 (N = 54)): 0 n (%)
clinical laboratory test results (including liver function tests), vital sign findings, cytopenias, or ECG results reported as a TEAE (SRD and MRD parts): No subject
Deaths (SRD single dose 0.1 mg (n = 6)): 0 n (%)
Serious TEAEs (SRD single dose 0.1 mg (n = 6)): 0 n (%)
Serious TEAEs, Not related (SRD single dose 0.1 mg (n = 6)): 0 n (%)
Serious TEAEs, Related (SRD single dose 0.1 mg (n = 6)): 0 n (%)
